As a reminder, the Kd is the constant that tells how readily two partners part at equilibrium.

The values that follow come from patent US12264175B2, “Compositions and methods for capping RNAS” (Verve Therapeutics, Inc., priority 2020, dated 2025).

In experiment [1] the target is T1, T7 RNA polymerase (Escherichia phage T7, UniProt P00573). Kind of experiment: One-pot IVT preparation of 5′ capped mRNA (production yield, full-length purity). Format: biochemical. An excerpt: The 5′ end initiator, 1007a, (FIG. 1A) was used to prepare capped mRNAs that encode for ABE and luciferase proteins. In this Example and for all others described herein, the ABE mRNA sequence was MA004 (SEQ. 0001) and the luciferase mRNA sequence was the Photinus pyralis (Firefly) luciferase sequence described in NCBI reference sequence XM_031473197.1. These mRNA can be produced by different methods well known in the art. One of such methods used herein was in vitro transcription (IVT) using T7 polymerase; or in other embodiments, additional RNA polymerase variants. This IVT reaction to produce mRNA used a linearized DNA template that comprised a T7 polymerase promoter and associated regulatory sequences, mRNA coding sequence (CDS), 3′ and 5′ untranslated regions (UTRs), poly A tail, and additional sequence elements to facilitate and modulate mRNA stability and in vivo performance. Prior to IVT, the DNA template was in the form of a plasmid; in other embodiments the DNA template is in the form of a PCR product, synthetic DNA product, or any other double-stranded DNA construct. Linearization of the DNA template with a restriction digestion enzyme was performed in order to promote run-off transcription. The typical IVT reaction included T7 polymerase, DNA template, RNase inhibitor, cap analog, inorganic pyrophosphatase, and the naturally occurring ribonucleoside triphosphates (NTPs) such as GTP, ATP, CTP, and N1-methyl pseudouridine triphosphosphate; in some embodiments NTPs include UTP or modified NTPs such as pseudouridine, 5′methyl cytidine, 5-methoxy uridine, N6-methyl adenosine, and N4-acetyl cytidine. The 1007a 5′ end initiator was added to the IVT reaction along with ATP, GTP, CTP, and N1-methyl pseudouridine triphosphate at a 1:1 initiator-to-NTP molar ratio and additional ratios described in Example 5 (B). Poly A tail was encoded in the DNA template that was added to the mRNA during transcription; in some instances, poly A tail is added to the mRNA after the IVT reaction using an RNA ligase enzyme. Finally, T7 RNA polymerase was added to the mixture and the IVT reaction was run at 37° C. for about 1-4 hours. After IVT, DNase was added to the transcription mixture to remove DNA template; in some instances, residual DNA is removed with chromatography. This mRNA was purified to remove residual reaction products and impurities, and stored in 1 mM citrate buffer. Characterization of production yield and mRNA full-length purity was performed by UV spectrometry and capillary gel electrophoresis methods, which are known in the art. […] Similar IVT and purification process are used to produce mRNA encoding SpCas9, Cas12b, CBE, and other ABEs; in all cases the DNA template, reaction conditions, and purification parameters are optimized for the specific gene of interest.
T1 sequence (P00573 whole entry): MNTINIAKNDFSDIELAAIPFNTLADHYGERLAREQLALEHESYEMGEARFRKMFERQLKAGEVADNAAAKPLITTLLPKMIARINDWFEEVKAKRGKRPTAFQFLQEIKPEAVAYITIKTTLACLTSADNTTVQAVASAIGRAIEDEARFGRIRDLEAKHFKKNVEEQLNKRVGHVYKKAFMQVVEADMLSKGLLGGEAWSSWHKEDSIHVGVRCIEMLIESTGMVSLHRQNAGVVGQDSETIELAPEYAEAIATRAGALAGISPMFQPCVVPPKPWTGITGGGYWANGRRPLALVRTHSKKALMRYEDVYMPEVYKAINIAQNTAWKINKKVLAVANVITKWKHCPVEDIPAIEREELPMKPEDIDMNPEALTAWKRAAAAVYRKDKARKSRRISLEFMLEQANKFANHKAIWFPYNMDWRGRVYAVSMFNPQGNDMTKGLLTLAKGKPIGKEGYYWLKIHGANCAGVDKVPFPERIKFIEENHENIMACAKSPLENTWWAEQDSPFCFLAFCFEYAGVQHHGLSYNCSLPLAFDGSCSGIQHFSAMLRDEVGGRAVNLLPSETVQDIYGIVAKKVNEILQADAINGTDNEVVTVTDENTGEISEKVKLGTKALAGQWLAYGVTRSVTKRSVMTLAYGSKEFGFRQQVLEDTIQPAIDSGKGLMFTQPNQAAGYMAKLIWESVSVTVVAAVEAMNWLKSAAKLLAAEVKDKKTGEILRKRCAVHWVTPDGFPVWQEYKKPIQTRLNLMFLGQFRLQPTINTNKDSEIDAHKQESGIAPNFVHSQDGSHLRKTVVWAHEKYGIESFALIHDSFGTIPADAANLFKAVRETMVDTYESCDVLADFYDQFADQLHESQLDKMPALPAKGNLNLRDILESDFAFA
Similarly, ABE encoding mRNA with 5′ end region, 1107a, (FIG. 1B) was produced and characterized as described in the paragraph above.

Experiment [2] concerns the target T1, T7 RNA polymerase. Description: mRNA capping efficiency at adjusted 5′ end initiator-to-NTP molar ratio. The class given is biochemical. Conditions: initiator-to-NTP ratio ranging from 1:1 down to 1:1.67; FIG. 4. The text has this: The amount of capped mRNA produced in an IVT reaction is directly proportional to the ratio of cap to NTPs in the reaction mixture (Stepinski, J. et al., RNA. 2006, 7, 1486-1495). The 5′ end initiator-to-NTP ratio in an IVT reaction impacts the amount of mRNA that becomes capped primarily because cap can compete with NTPs for insertion at the 5′ end of mRNA. A typical initiator-to-NTP ratio for a dinucleotide cap structure is 4:1 and a typical molar initiator-to-NTP ratio for a trinucleotide cap structure is 1:1; where NTP represents either GTP, ATP, CTP, UTP, or modified NTPs such as N1-methyl pseudouridine. At both a 4:1 ratio for a dinucleotide cap and 1:1 ratio for a trinucleotide cap, the resultant mRNA will have a mixture of transcripts of which at least 80% are capped at the 5′ end and up to 20% are uncapped, this is also described as a capping efficiency of 80%. Capping efficiency is the measured amount of capped mRNA divided by the total amount of capped mRNA plus uncapped mRNA. Therefore, trinucleotide caps can be considered more efficient capping compounds than dinucleotide caps since less input cap is required to produce a final mRNA product that contains a similar amount of capped 5′ ends. The ability of trinucleotide caps to produce a high (>90%) capping efficiency at a lower initiator-to-NTP ratio than dinucleotide caps, in some instances, can be attributed to the increased affinity of a trinucleotide cap for the DNA template. In some cases, the optimal cap-to-NTP ratio may vary with the composition of the cap structure, wherein modification of cap structures may affect capping efficiency. […]
The amount of capped mRNA relative to the total amount of mRNA that is present, i.e. capping efficiency, can be measured by numerous methods well known in the art. […]

The test system of experiment [3] is primary human liver hepatocytes (hPH). Kind of experiment: ABE protein levels by ELISA after mRNA transfection of primary human hepatocytes. Format: cell-based. Conditions: ABE mRNA transfected to hPH cells, FIG. 6. Here is the method: Primary human liver hepatocytes (hPH), primary cynomolgus liver hepatocytes (cPH), or primary mouse liver hepatocytes (mPH) are cultured per the manufacturer's protocol. In brief, the cells are thawed and resuspended in hepatocyte thawing medium followed by centrifugation at 100 g for 10 min at 4° C. The supernatant is discarded, and the pelleted cells resuspended in hepatocyte plating medium. Each vial contains ˜5 million cells that are used for plating one 24-well plate. Plated cells are allowed to settle and adhere for 4-6 h in a tissue culture incubator at 37° C. under 5% CO2 atmosphere. After incubation, cells are checked for monolayer formation. The incubating media is then replaced with fresh hepatocyte maintenance media The cells thus are ready for transfection using a transfection agent such as MessengerMAX. Solution A: desired amount of single guide RNA (sgRNA) is mixed with 1:1 wt ratio of mRNA in OptiMEM. Solution B: MessengerMAX in OptiMEM. After mixing solutions A and B, the mixture is incubated at room temperature for 20 minutes, and then the incubated solution is added dropwise to each well of cells. The cells are then allowed to remain at 37° C. for 3 days. […] For example, mRNA with 5′ end region motifs, 1007a and 1107a, were transfected to hPH cells as described above, the cells were lysed, and ABE protein levels were measured by ELISA. […]

In another experiment the target is T7 RNAP (Escherichia phage T7, UniProt P00573). Conditions: first initiating NTP / guanosine; J. Mol. Biol. (2007) 370, 256-268; cited from earlier work.
Chain of T7 RNAP (P00573 whole entry): as above

The structures appear in SMILES notation.

`COC1C(OP(=O)(O)OCC2OC(n3cnc4c(=O)[nH]c(N)nc43)C(O)C2O)C(COP(=O)(O)OP(=O)([S-])OP(=O)(O)OCC2OC(n3c[n+](C)c4c(=O)[nH]c(N)nc43)C(O)C2O)OC1n1cnc2c(N)ncnc21` (stereo not drawn) [1107a, m^7G(ppsp)Am(p)G]: the “final production yield of mRNA” value at T7 RNA polymerase [1] (ABE encoding mRNA made with the 5′ end initiator, T7 IVT, FIG. 2) is given as “about 3.3 mg per 1 ml of IVT reaction”. In addition, at T7 RNA polymerase [1] (ABE encoding mRNA made with the 5′ end initiator, capillary gel electrophoresis, FIG. 3), the mRNA full-length purity entry is listed as “about 86%”. Besides, the “amount of full-length mRNA produced” value at T7 RNA polymerase [1] (initiator-to-NTP ratio ranging from 1:1 down to 1:5, FIG. 3) is “did not reduce”. Moreover, the capping efficiency on T7 RNA polymerase [2] is reported as > 90%. In addition, the “ABE protein levels as compared to mRNA with 5′ end region motif 1002a” value in experiment [3] is given as “similar”.

For `Nc1nc2c(ncn2[C@@H]2O[C@H](COP(=O)(O)OP(=O)(O)OP(=O)(O)O)[C@@H](O)[C@H]2O)c(=O)[nH]1` [GTP], the Kd at T7 RNAP was 2 mM.
